{"source": "patent US20130302889A1", "about": "“Differentiation of Bone Marrow Cells into Neuronal Cells and Uses Therefor” (Philadelphia Health and Education Corporation, priority 2002, published 2013)", "key": {"rMSCs [1]": {"system": "rMSCs", "experiment": "Neuronal differentiation of rMSCs (morphology)", "format": "cell-based, rat", "conditions": "for neuronal morphologies elicited by anti-oxidant treatment: alone and in combination, time course similar to BME", "protocol": "Rat MSCs were originally cultured in alpha-Modified Eagle's Medium (alpha-MEM) supplemented with 20% FBS, 2 mM L-glutamine, 100 units per milliliter penicillin, […] streptomycin and 25 nanogramps per milliliter amphotericin B. For each passage the cells were plated at about 8,000 cells per square centimeter and grown to confluency. At passage 6 the cells were transferred to DMEM (pH 8.0)/20% FBS without additional supplementation, and maintained beyond passage 14. The rat MSCs were obtained with a protocol and procedures approved by the Institutional IACUC. The human samples were obtained from volunteers with informed consent and according to a protocol approved by the Institutional Review Board.\nTo induce the neuronal phenotype, rMSCs were initially maintained in sub-confluent cultures in media supplemented with 1 mM beta-mercaptoethanol (BME) for 24 hours. […] To effect neuronal differentiation, the cells were transferred to serum-free medium containing 1-10 millimolar BME (SFM/BME). […] Within 60 minutes of exposure to SFM/BME changes in morphology of some of the rMSCs were apparent (FIG. 2C). Responsive cells progressively assumed neuronal morphological characteristics over the first 3 hours. Initially, cytoplasm in the flat rMSCs retracted towards the nucleus, forming a contracted multipolar, cell body, leaving membranous, process-like extensions peripherally (0-90 minutes).\nTo begin examining the hypothesis that the anti-oxidant properties of BME mediated induction of neuronal differentiation in MSCs, rMSCs were treated with other anti-oxidants, e.g., dimethylsulfoxide (DMSO), butylated hydroxyanisole (BHA), or butylated hydroxytoluene (BHT), ascorbic acid, dimethylfumarate, n-acetylcysteine, and the like, both alone and in combination with each other."}, "rMSCs [2]": {"system": "rMSCs", "experiment": "Immunocytochemistry for neuronal markers in treated rMSCs", "format": "cell-based, rat", "protocol": "Cultured rMSCs were fixed with 4% paraformaldehyde, incubated with primary antibody overnight at 4° C., incubated with secondary antibody for one hour, followed by exposure to avidin-biotin complex for one hour at 25° C. Diaminobenzidene (DAB) served as chromogenic substrate for HRP.\nTo further characterize potential neuronal differentiation, BME-treated cultures were stained to detect expression of the neuronal marker neuron-specific enolase (NSE). Unresponsive, flat rMSCs expressed very low, but detectable, levels of NSE protein, consistent with previous detection of minute amounts of protein and/or message in cells of bone marrow origin (Pechumer et al., 1993, Lab. Invest. 89:743-749; Reid et al., 1991, Clin. Pathol. 44:483-486; vanObberghen et al., 1988, J. Neurosci. Res. 19:450-456)."}, "rMSCs [3]": {"system": "rMSCs", "experiment": "Western blot for NSE in rMSC cultures", "format": "cell-based, rat", "conditions": "5 hours post BME treatment, versus uninduced rMSCs", "protocol": "[…] of protein extract from untreated (U) and BME-induced (I) rMSC cultures was separated on a 4%-20% gradient acrylamide gel and electrophoretically transferred to a nylon membrane. The Western blot was probed for tubulin, expression using an anti-tubulin monoclonal antibody (Sigma Chemical Co., St. Louis, Mo.) followed by secondary antibody conjugated with horse radish peroxidase (HRP). Color development was performed using enhanced chemiluminescence reagents (Amersham, Piscataway, N.J.). The blot was then stripped and probed for NSE expression using anti-NSE polyclonal antibody (ICN). Again, the secondary antibodies were HRP-conjugated, and color was developed using ECL reagents, […]"}, "rMSC clones": {"system": "rMSC clones", "experiment": "Differentiation of clonal rMSC lines", "format": "cell-based, rat", "conditions": "after BME treatment", "protocol": "To establish clones, rMSCs were plated at approximately 10 cells per square centimeters, grown to 50-150 cells per colony, isolated with cloning cylinders, transferred to separate wells and eventually to individual flasks."}, "hMSCs": {"system": "hMSCs", "experiment": "Neuronal differentiation of human MSCs", "format": "cell-based", "protocol": "Cells from passage two were subjected to the neuronal differentiation protocol and stained for NSE or NF-M expression. […] Contracted cell bodies elaborated processes and stained strongly for NSE expression within 3 hours (FIGS. 8A and 8B). Transitional cells were also evident ( ? ). […] Growth cone morphologies with filopodial extensions ( ? ) were clearly evident on the processes elaborated by paired neurons depicted in the image in FIG. 8C."}}, "note": "“Also recorded” adds a separate entry of the source.", "data": [{"molecule": "COc1ccc(O)c(C(C)(C)C)c1", "note": "[BHA, butylated hydroxyanisole]", "values": [{"measurement": "neuronal morphologies elicited by anti-oxidant treatment", "setting": "rMSCs [1]", "result": "elicited neuronal morphologies"}]}, {"molecule": "Cc1cc(C(C)(C)C)c(O)c(C(C)(C)C)c1", "note": "[BHT, butylated hydroxytoluene]", "values": [{"measurement": "neuronal morphologies elicited by anti-oxidant treatment", "setting": "rMSCs [1]", "result": "elicited neuronal morphologies"}]}, {"molecule": "OCCS", "note": "[BME, beta-mercaptoethanol]", "values": [{"measurement": "percentage of cells adopting a neuronal morphology", "setting": "rMSCs [1]; SFM with 1-10 millimolar BME, effect of concentration", "result": "increased at higher BME concentrations"}, {"measurement": "percentage of cells adopting a neuronal morphology", "setting": "rMSCs [1]; effect of BME pretreatment", "result": "enhanced by BME pretreatment"}, {"measurement": "time to apparent changes in morphology", "setting": "rMSCs [1]; serum-free medium containing 1-10 millimolar BME (SFM/BME)", "result": "≤ 60", "unit": "minutes"}, {"measurement": "changes in morphology", "setting": "rMSCs [1]; sub-confluent cultures, media supplemented with 1 mM BME for 24 hours", "result": "no changes in morphology were evident"}, {"measurement": "NSE expression (immunostaining)", "setting": "rMSCs [2]; BME-treated cultures", "result": "increased expression of NSE"}, {"measurement": "time to increased expression of neuronal marker NSE", "setting": "rMSCs [2]; after treatment", "result": "≤ 30", "unit": "min"}, {"measurement": "NF-M expression (immunostaining)", "setting": "rMSCs [2]; cells exhibiting neuronal morphologies", "result": "increased expression of NF-M"}, {"measurement": "NeuN expression (immunostaining)", "setting": "rMSCs [2]; differentiated cultures", "result": "stained for NeuN expression"}, {"measurement": "NSE expression (Western blot)", "setting": "rMSCs [3]", "result": "significant increase in NSE expression"}, {"measurement": "generation of NSE-positive neurons from single-cell clones", "setting": "rMSC clones", "result": "differentiated into NSE-positive neurons; also recorded: generated refractile, process-bearing, NSE-positive cells"}, {"measurement": "NF-M expression", "setting": "hMSCs; hMSC-derived neurons", "result": "expressed NF-M"}, {"measurement": "neuronal characteristics and NSE expression", "setting": "hMSCs; hMSCs passage two, after BME treatment", "result": "attained neuronal characterises and increased NSE expression"}, {"measurement": "time to strong NSE staining", "setting": "hMSCs; hMSCs, BME treatment", "result": "≤ 3", "unit": "h"}]}, {"molecule": "C[S+](C)[O-]", "note": "[DMSO, dimethylsulfoxide]", "values": [{"measurement": "neuronal morphologies elicited by anti-oxidant treatment", "setting": "rMSCs [1]", "result": "elicited neuronal morphologies"}]}, {"molecule": "O=C1O[C@H]([C@@H](O)CO)C(O)=C1O", "note": "[ascorbic acid]", "values": [{"measurement": "neuronal morphologies elicited by anti-oxidant treatment", "setting": "rMSCs [1]", "result": "elicited neuronal morphologies"}]}, {"molecule": "CC(=O)N[C@@H](CS)C(=O)O", "note": "[n-acetylcysteine]", "values": [{"measurement": "neuronal morphologies elicited by anti-oxidant treatment", "setting": "rMSCs [1]", "result": "elicited neuronal morphologies"}]}]}
